Data on four molecules can be found in article PMC8987157, “Regioselective One-Pot Synthesis of Hydroxy-(S)-Equols Using Isoflavonoid Reductases and Monooxygenases and Evaluation of the Hydroxyequol Derivatives as Selective Estrogen Receptor Modulators and Antioxidants” (Frontiers in Bioengineering and Biotechnology, 2022).

In one experiment the target is T1, ERα LBD (Homo sapiens, UniProt P03372).
T1 construct: expressed in transfected cells; host or cells: Saccharomyces cerevisiae L40
T1 sequence (P03372 312-595): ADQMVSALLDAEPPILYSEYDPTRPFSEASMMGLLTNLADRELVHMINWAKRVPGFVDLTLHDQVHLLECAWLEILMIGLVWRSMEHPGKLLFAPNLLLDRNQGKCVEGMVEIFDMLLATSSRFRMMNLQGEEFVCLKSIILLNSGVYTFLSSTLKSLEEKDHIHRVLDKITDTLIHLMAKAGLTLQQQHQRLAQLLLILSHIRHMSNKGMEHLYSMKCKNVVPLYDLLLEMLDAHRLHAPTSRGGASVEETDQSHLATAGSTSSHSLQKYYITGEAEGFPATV
T1 sequence (Q15788 613-773 partner limits assumed): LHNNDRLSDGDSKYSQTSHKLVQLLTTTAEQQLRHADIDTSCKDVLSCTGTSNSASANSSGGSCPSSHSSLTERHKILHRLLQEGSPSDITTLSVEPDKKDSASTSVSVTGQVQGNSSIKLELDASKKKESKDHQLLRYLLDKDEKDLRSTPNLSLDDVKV
In words: ERα-SRC1 agonistic yeast two hybrid (Y2H) assay, β-galactosidase activity. It is filed as cell-based. The note with it: for pEC50: Y2H ERα-SRC1, yeast L40, triplicates. The source says:
(§1) Microbial strains. Cloning information and used primers for the construction of EcHpaBC and MaFMO encoded vectors are listed in Supplementary Table S1. […] Three EcHpaB mutants were made by site-directed mutagenesis using the listed overlapping primer-containing intended mutations. […] These sets of two vectors (pBTM116:LexA DBD-ERα LBD & pVP16:VP16 AD-(Gly4Ser)2-tSRC1 or pBTM116:LexA DBD-ERβ LBD & pVP16:VP16 AD-(Gly4Ser)2-tSRC1) were transformed in the L40 strains.
(§2) Yeast-two-hybrid assay. The transformed L40 strains were grown in synthetic leucine and tryptophan drop-out (SD L^−W^-) media. […] These plates were incubated at 30 °C with shaking of 1,000 rpm for overnight (∼20 h). After the incubation, the cultures were centrifuged, and the supernatants were discarded. In each well, 500 μL Z-buffer (60 mM Na2HPO4, 40 mM NaH2PO4, 10 mM KCl, and 1 mM MgSO4; pH 7.0) with 1 mM dithiothreitol (DTT) was filled and resuspended. 50 μL of each suspension was taken for OD600 measurement before chloroform treatment. (This value was not used for the measurement of the Miller unit.) Chloroform 50 μL was added to each 450 μL of the suspension, and the solution mixture was shaked for 1 min at 1,000 rpm to disrupt the cell membrane. The disrupted suspensions were kept still at room temperature for 2 min, and 50 μL aqueous aliquots were taken. In polystyrene flat-bottomed 96-well plate, each well was charged with 100 μL of Z-buffer with 1 mM DTT, 50 μL aqueous aliquot, and 50 μL of Z-buffer with 1 mM DTT and 0.4 mg/ml ortho-nitrophenyl-β-galactoside (ONPG). Initially, OD600 of all the wells was measured, and subsequently, OD420 of the same wells was measured for 30 min with a minute interval. […] E/E0=ε/1+10^n(log(EC50)−log([L])),
(§3) where E/E 0 is the normalized Miller unit and ε is the maximum response relative to E2 (ε(E2) = 1). [L] is the concentration of ligands and n is the Hill’s coefficient.

The target in another experiment is T2, ERβ LBD (Homo sapiens, UniProt Q92731).
T2 construct: LexA DBD-ERβ LBD (264–510); expressed in transfected cells; host or cells: Saccharomyces cerevisiae L40
In words: ERβ-SRC1 agonistic yeast two hybrid (Y2H) assay, β-galactosidase activity. The format is cell-based. The settings on record: for β/α ratio of EC50^-1: ERβ over ERα, Y2H; for pEC50: Y2H ERβ-SRC1, yeast L40, triplicates.
Description: as §1, §2, §3

The nature of experiment [1]: DPPH radical scavenging assay. As to the method:
DPPH radical scavenging assay. In each well of polystyrene flat-bottom 96-well plates, 200 μL of solution containing 0.1 mM 2,2-diphenyl-1-(2,4,6-trinitrophenyl)hydrazin-1-yl (DPPH) radical, 50% (v/v) MeOH, 10% (v/v) DMSO, specific amount of compounds, and 1x concentration of phosphate buffered saline (PBS) was made. The PBS was prepared with 4x concentration of its original recipe with pH 7.4 and diluted by adding 50 μL in the solution mixture. The plates were incubated at 37°C for 30 min. The OD520 and OD495 of incubated plates were measured. The radical scavenging activity was defined as (OD520/OD495)DMSO- OD520/OD495. (OD520/OD495)DMSO is the OD520/OD495 of the DMSO control without antioxidative compounds. The radical scavenging activity values were normalized with the value of the positive control (1 mM of L-ascorbic acid). The data were triplicated, and the average values were regressed using the following formula.
where E/E 0 is the normalized radical scavenging activity, [L] is the concentration of compounds, and n is the Hill’s coefficient, and EC50 is the value of effective concentration at E/E 0 = 0.5.
In general terms: Loss of DPPH colour is used to gauge radical scavenging.

The subject of a further experiment is ERα. The arrangement: method as in Lee et al., 2017. The note with it: ref Lee et al., 2017; cited from earlier work.

pEC50: −log10 of the molar value. “And” between values parts separate entries of the source, which are not always exact repeats. Equal entries are not always repeated.

T2 sequence (Q92731 264-510, one chain of several): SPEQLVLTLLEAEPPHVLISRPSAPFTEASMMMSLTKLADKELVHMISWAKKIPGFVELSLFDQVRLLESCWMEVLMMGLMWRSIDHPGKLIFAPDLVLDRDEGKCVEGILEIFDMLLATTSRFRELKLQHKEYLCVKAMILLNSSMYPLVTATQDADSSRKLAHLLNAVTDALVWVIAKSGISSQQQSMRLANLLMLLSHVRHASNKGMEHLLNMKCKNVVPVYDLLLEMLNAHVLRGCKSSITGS

As usually defined, the pEC50 is −log10 of the EC50, conventionally taken in molar units. As to `Oc1ccc2c(c1)OC[C@H](c1ccc(O)c(O)c1)C2` [3'-hydroxy-(S)-equol, 3′-hydroxy-(S)-equol], the “fold higher EC50 than (S)-equol” value at ERα LBD (ERα) and on ERβ LBD (ERβ) was 30∼200 fold throughout. The pEC50 on ERα LBD was 4.00 to 5.00 and 4.69; at ERβ LBD, 4.00 to 5.00 and 4.75. On ERβ LBD, the “β/α ratio of EC50^-1” value is 1.15. In addition, in experiment [1], the “antioxidative activity higher than 3′HD” value was “more than 40%”.

Regarding `Oc1ccc([C@H]2COc3cc(O)cc(O)c3C2)cc1` [5-hydroxy-(S)-equol], the “response in Y2H agonist assay” value is listed as “did not show any response” on ERα LBD (ERα, concentrations in the range of 10^–8∼10^–3 M) and “did not show any response” at ERβ LBD (ERβ, concentrations in the range of 10^–8∼10^–3 M). Besides, the “binding affinity ERα versus ERβ” value in the experiment on ERα is “higher binding affinity to ERα than ERβ”.

Regarding `Oc1ccc([C@H]2COc3cc(O)c(O)cc3C2)cc1` [6-hydroxy-(S)-equol], the “fold higher EC50 than (S)-equol” value on ERα LBD (ERα) is 30∼200 fold. Further, the pEC50 on ERα LBD is 4.00 to 5.00 and 3.99. For the same molecule, on ERβ LBD, the “lower β/α ratio response than that of 17β-estradiol” value was determined as 10%; the “β/α ratio of EC50^-1” value turned out to be 1.00; the pEC50 was 4.00 to 5.00 and 3.99. Moreover, at ERβ LBD (ERβ), the “fold higher EC50 than (S)-equol” value is recorded as 30∼200 fold.

With `Oc1ccc([C@H]2COc3cc(O)ccc3C2)cc1` [(S)-equol], the “weaker estrogenic activity than E2” value on ERα LBD (ERα) and at ERβ LBD (ERβ) was “about 3 orders of magnitude” each time. The values for the pEC50 on ERα LBD and on ERβ LBD were 6.18 and 6.30, respectively. Moreover, the “β/α ratio of EC50^-1” value at ERβ LBD is 1.31.
